Here are results for 33 compounds from ChEMBL document CHEMBL3751745, “Aryl-imidazothiadiazole analogues as microtubule disrupting agents” (Medchemcomm, 2015).

Active and inactive are the calls of the source. The rule behind the calls is not given here.

Experiment [1] in a line: Cytotoxicity against human MIAPaCa2 cells assessed as cell viability after 48 hrs by SRB assay. Format: functional, cell-based. The settings on record: MIA PaCa-2, 48 h.
Experiment [2] deals with HeLa. The experiment is described as follows: Cytotoxicity against human HeLa cells assessed as cell viability after 48 hrs by SRB assay. Format: functional, cell-based.
The next experiment relates to MCF7. Briefly: Cytotoxicity against human MCF7 cells assessed as cell viability after 48 hrs by SRB assay. Format: functional, cell-based. The conditions noted are these: MCF7, 48 h. Background: Sulforhodamine B stains cellular protein and so reports cell mass.
Experiment [3] is described as follows: Cytotoxicity against human DU145 cells assessed as cell viability after 48 hrs by SRB assay. Format: functional, cell-based. The conditions noted are these: DU-145, 48 h.
Experiment [4] deals with HeLa. Briefly: Induction of apoptosis in human HeLa cells assessed as activation of caspase-3 activity at 2 uM after 24 hrs by ELISA. Format: functional. On the technique in general: An ELISA detects its analyte on a solid surface through an enzyme-linked reagent.
The test system of experiment [5] is HeLa. Briefly: Disruption of microtubule organization in human HeLa cells at 5 uM after 24 hrs by DAPI-FITC staining based confocal microscopic analysis. Format: functional, cell-based.
Experiment [6] relates to HeLa. Briefly: Induction of apoptosis in human HeLa cells assessed as activation of caspase-3 activity at 4 uM after 24 hrs by ELISA. Format: functional.
The test system of experiment [7] is HeLa. The experiment is described as follows: Induction of apoptosis in human HeLa cells assessed as activation of cyclin B1 mRNA levels at 5 uM after 24 hrs by semi-quantitative RT-PCR. Format: functional, cell-based.
The subject of experiment [8] is HeLa. Briefly: Induction of cell cycle arrest in human HeLa cells assessed as cell arrest at accumulation at G2/M phase at 5 uM after 24 hrs by flow cytometric analysis (reference value: 25.49%). Format: functional. (In general: Flow cytometry measures light scatter and fluorescence of single cells or particles in a stream.)
For experiment [9], the system named is HeLa. The experiment is described as follows: Induction of apoptosis in human HeLa cells assessed as induction of cyclin B1 levels at 5 uM after 24 hrs by Western blot analysis. Format: functional, cell-based.
The next experiment addresses Tubulin (Sus scrofa) (UniProt P02554+P02550). Briefly: Inhibition of porcine brain tubulin polymerization at 5 uM by fluorescence based assay.
Another experiment addresses Tubulin (Sus scrofa, UniProt P02554+P02550). Briefly: Inhibition of porcine brain tubulin polymerization by fluorescence based assay.
The test system of experiment [10] is HeLa. Briefly: Induction of cell cycle arrest in human HeLa cells assessed as cell arrest at accumulation at G2/M phase at 2 uM after 24 hrs by flow cytometric analysis (reference value: 25.49%). Format: functional.

Tubulin (Sus scrofa), sequence (P02550 whole entry, looked up): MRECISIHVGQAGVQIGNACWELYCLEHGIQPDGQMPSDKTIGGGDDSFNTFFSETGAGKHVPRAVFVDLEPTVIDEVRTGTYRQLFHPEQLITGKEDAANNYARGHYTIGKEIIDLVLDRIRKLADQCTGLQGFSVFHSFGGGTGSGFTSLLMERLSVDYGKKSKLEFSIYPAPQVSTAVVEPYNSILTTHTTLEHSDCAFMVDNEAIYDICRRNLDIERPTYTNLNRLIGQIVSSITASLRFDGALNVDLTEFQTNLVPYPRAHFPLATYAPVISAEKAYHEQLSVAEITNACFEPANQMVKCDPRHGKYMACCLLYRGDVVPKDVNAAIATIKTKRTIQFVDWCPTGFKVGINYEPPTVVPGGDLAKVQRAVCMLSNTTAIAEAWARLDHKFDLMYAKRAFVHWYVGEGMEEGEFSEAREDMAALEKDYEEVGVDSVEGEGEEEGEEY
Tubulin (Sus scrofa), sequence (P02554 whole entry, looked up): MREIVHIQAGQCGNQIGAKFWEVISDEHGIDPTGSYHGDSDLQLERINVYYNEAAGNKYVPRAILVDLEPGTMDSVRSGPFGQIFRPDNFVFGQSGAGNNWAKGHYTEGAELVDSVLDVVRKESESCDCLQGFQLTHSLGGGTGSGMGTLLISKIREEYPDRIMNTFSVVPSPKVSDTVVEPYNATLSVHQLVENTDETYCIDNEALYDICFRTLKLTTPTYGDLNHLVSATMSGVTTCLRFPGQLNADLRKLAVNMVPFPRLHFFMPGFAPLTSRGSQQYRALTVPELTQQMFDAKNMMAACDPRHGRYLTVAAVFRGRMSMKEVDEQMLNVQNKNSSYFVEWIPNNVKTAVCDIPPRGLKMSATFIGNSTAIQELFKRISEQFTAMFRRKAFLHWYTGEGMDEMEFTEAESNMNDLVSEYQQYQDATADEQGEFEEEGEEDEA

A word on the IC50: it is the concentration that inhibits the measured activity by half. As for `COc1cc(F)ccc1-c1c(-c2cc(OC)c(OC)c(OC)c2)nc2sc(C3CC3)nn12`, the half-inhibitory concentration (IC50) in [1] worked out at 40.9 µM; in the experiment on HeLa [2] it was 25.9 µM; in the experiment with MCF7, 34.8 µM; in experiment [3], 22.4 µM.
Take `COc1cc(-c2nc3sc(C4CC4)nn3c2-c2ccccc2)cc(OC)c1OC`: the IC50 in [1] turned out to be 31.5 µM; with HeLa [2] it was 35.4 µM; in the experiment on MCF7 it was 42.3 µM; in [3], 25.6 µM.
On the same counts, the results for `COc1cc(-c2nc3sc(C4CC4)nn3c2-c2cc(F)cc(F)c2)cc(OC)c1OC` are 29.6 µM, 17.3 µM, 23.4 µM and 16.9 µM.
On the same counts, the results for `COc1cc(-c2nc3sc(C4CC4)nn3c2-c2ccc(F)c(Cl)c2)cc(OC)c1OC` are 20.7 µM, 15.5 µM, 18.7 µM and 13.7 µM.
As for `CCc1nn2c(-c3cc(OC)c(OC)c(OC)c3)c(-c3cc(OC)c(OC)c(OC)c3)nc2s1`, the IC50 was 19.6 µM in experiment [1], 17.5 µM with HeLa [2], 20.4 µM in the experiment with MCF7 and 13.4 µM in experiment [3].
Turning to `CCc1nn2c(-c3ccc(Cl)cc3)c(-c3cc(OC)c(OC)c(OC)c3)nc2s1`, the IC50 was 15.4 µM in experiment [1], 13.7 µM with HeLa [2], 12.2 µM with MCF7 and 19.1 µM in experiment [3].
For `CCc1nn2c(-c3ccc(C(F)(F)F)cc3)c(-c3cc(OC)c(OC)c(OC)c3)nc2s1` the same measures were 14.8 µM, 10.5 µM, 11.8 µM and 18.3 µM.
On the same counts, the results for `CCc1nn2c(-c3ccc(OC(F)(F)F)cc3)c(-c3cc(OC)c(OC)c(OC)c3)nc2s1` are 16.4 µM, 13.4 µM, 14.8 µM and 23.5 µM.
On the same counts, the results for `CCc1ccc(-c2c(-c3cc(OC)c(OC)c(OC)c3)nc3sc(C4CC4)nn23)cc1` are 39.8 µM, 36.2 µM, 29.3 µM and 13.5 µM.
Take `CCc1nn2c(-c3ccc(F)c(Cl)c3)c(-c3cc(OC)c(OC)c(OC)c3)nc2s1`: the IC50 in experiment [1] stood at 17.3 µM; in the experiment with HeLa [2] it was 13.9 µM; in the experiment with MCF7, 14.5 µM; in experiment [3], 11.4 µM.
On the same counts, the results for `COc1cc(-c2nc3sc(C4CC4)nn3c2-c2ccc3ccccc3c2)cc(OC)c1OC` are 21.6 µM, 19.4 µM, 15.3 µM and 45.2 µM.
On the same counts, the results for `CCc1nn2c(-c3ccc(F)cc3)c(-c3cc(OC)c(OC)c(OC)c3)nc2s1` are 10.5 µM, 11.3 µM, 9.8 µM and 16.6 µM.
For `COc1cc(-c2nc3sc(C4CC4)nn3c2-c2ccc(OC(F)(F)F)cc2)cc(OC)c1OC` the same measures were 18.2 µM, 11.3 µM, 16.8 µM and 13 µM.
Regarding `COc1cc(-c2nc3sc(C4CC4)nn3c2-c2ccc(Cl)cc2)cc(OC)c1OC`, the IC50 in experiment [1] was 17.4 µM; in the experiment with HeLa [2] it was 19.2 µM; in the experiment with MCF7, 22.9 µM; in experiment [3] it was 11.6 µM.
On the same counts, the results for `COc1cc(-c2nc3sc(C4CC4)nn3c2-c2ccc(F)cc2)cc(OC)c1OC` are 27.6 µM, 15.6 µM, 19.6 µM and 15.1 µM.
As for `COc1ccc(/C=C\c2cc(OC)c(OC)c(OC)c2)cc1O` [COMBRETASTATIN A4], the “fold change (FC)” value with HeLa [4] and in the experiment on HeLa [6] was 2.5 throughout. Further, the outcome in the experiment with HeLa [5], with HeLa [7] and in the experiment on HeLa [9] was Active. Also, the IC50 is 0.087 µM in experiment [1], 0.15 µM in the experiment on HeLa [2], 0.134 µM with MCF7 and 0.12 µM in experiment [3]. The Activity in the experiment on HeLa [8] was 83.95%.
`CCc1ccc(-c2c(-c3cc(OC)c(OC)c(OC)c3)nc3sc(CC)nn23)cc1`: the IC50 came out at 14.6 µM in [1], 12.4 µM with HeLa [2], 12.5 µM in the experiment with MCF7 and 24.4 µM in experiment [3].
On the same counts, the results for `CCc1nn2c(-c3ccc(C)cc3)c(-c3cc(OC)c(OC)c(OC)c3)nc2s1` are 20.4 µM, 14.8 µM, 16.7 µM and 21.7 µM.
For `COc1cc(-c2nc3sc(C4CC4)nn3c2-c2ccc3c(c2)OCO3)cc(OC)c1OC` the same measures were 19.4 µM, 16.8 µM, 25.6 µM and 12.8 µM.
For `CCc1nn2c(-c3ccc(OC)cc3)c(-c3cc(OC)c(OC)c(OC)c3)nc2s1` the same measures were 30.5 µM, 21.6 µM, 25.4 µM and 25.4 µM.
Consider `CCc1nn2c(-c3ccc(OC)c(OC)c3)c(-c3cc(OC)c(OC)c(OC)c3)nc2s1`, for which the IC50 in experiment [1] worked out at 14.6 µM; in the experiment on HeLa [2], 14.6 µM; with MCF7 it was 11.4 µM; in [3], 13.3 µM.
Consider `COc1cc(-c2nc3sc(C4CC4)nn3c2-c2ccc(C(F)(F)F)cc2)cc(OC)c1OC`, for which the IC50 in experiment [1] came out at 23.4 µM; in the experiment on HeLa [2], 43.5 µM; in the experiment with MCF7, 18.4 µM; in experiment [3], 15.2 µM.
On the same counts, the results for `CCc1nn2c(-c3ccc(F)cc3OC)c(-c3cc(OC)c(OC)c(OC)c3)nc2s1` are 29.1 µM, 28.1 µM, 30.2 µM and 35.2 µM.
As to `CCc1nn2c(-c3ccccc3)c(-c3cc(OC)c(OC)c(OC)c3)nc2s1`, the IC50 in experiment [1] turned out to be 13.4 µM; in the experiment with HeLa [2] it was 10.8 µM; in the experiment on MCF7, 11.5 µM; in experiment [3], 14.6 µM.
`COc1cc(-c2nc3sc(C4CC4)nn3c2-c2ccc(C)cc2)cc(OC)c1OC`: the IC50 in experiment [1] was found to be 29.8 µM; in the experiment with HeLa [2] it was 20.5 µM; in the experiment on MCF7 it was 26.1 µM; in experiment [3] it was 18.5 µM.
Broadly, the inhibition is the drop in the measured response relative to a control, in per cent. Higher therefore signals a strong effect. Take `COC(=O)Nc1nc2cc(C(=O)c3cccs3)ccc2[nH]1`: the inhibition on Tubulin (Sus scrofa) is 79.2%.
Take `CCc1nn2c(-c3cc(F)cc(F)c3)c(-c3cc(OC)c(OC)c(OC)c3)nc2s1`: the IC50 was 30.6 µM in experiment [1], 26.4 µM with HeLa [2], 36.4 µM in the experiment with MCF7 and 21.6 µM in experiment [3].
For `CCc1nn2c(-c3ccc4c(c3)OCO4)c(-c3cc(OC)c(OC)c(OC)c3)nc2s1` the same measures were 13.1 µM, 8.7 µM, 11.5 µM and 18.8 µM.
On to `COc1cc(-c2nc3sc(C4CC4)nn3c2-c2ccc(N(C)C)cc2)cc(OC)c1OC`, for which the “fold change (FC)” value in the experiment on HeLa [4] and in the experiment on HeLa [6] was 2.5 each time. Moreover, the result in the experiment on HeLa [5], with HeLa [7] and in the experiment on HeLa [9] was Active. Also, the IC50 was 2.5 µM in experiment [1]; 3.8 µM on Tubulin; 2.9 µM in the experiment on HeLa [2]; 3.4 µM in the experiment with MCF7; 3.45 µM in experiment [3]. The same compound yielded an inhibition against Tubulin (Sus scrofa) of 60.9%. The values for the Activity in the experiment with HeLa [8] and in the experiment on HeLa [10] were 72.5% and 57.66%, respectively.
Turning to `CCc1nn2c(-c3ccc(N(C)C)cc3)c(-c3cc(OC)c(OC)c(OC)c3)nc2s1`, the “fold change (FC)” value in the experiment on HeLa [4] and in the experiment on HeLa [6] was 2.5 in each case. Also, the outcome in the experiment on HeLa [5], with HeLa [7] and with HeLa [9] was Active. Also, the IC50 in experiment [1] is 2.5 µM; against Tubulin, 3.1 µM; in the experiment on HeLa [2], 2.2 µM; with MCF7, 1.9 µM; in [3] it was 2.75 µM. In addition, the inhibition against Tubulin (Sus scrofa) worked out at 66.8%. In addition, the values for the Activity with HeLa [8] and with HeLa [10] were 67.53% and 55.3%, respectively.
`COc1ccc(-c2c(-c3cc(OC)c(OC)c(OC)c3)nc3sc(C4CC4)nn23)cc1OC`: the IC50 in [1] worked out at 19.6 µM; in the experiment on HeLa [2] it was 15.6 µM; with MCF7 it was 12.9 µM; in [3] it was 16.6 µM.
For `COc1cc(-c2nc3sc(C4CC4)nn3c2-c2cc(OC)c(OC)c(OC)c2)cc(OC)c1OC`, the half-maximal inhibitory concentration (IC50) was determined as 39.6 µM in experiment [1], 13.7 µM in the experiment with HeLa [2], 36.5 µM with MCF7 and 52.1 µM in experiment [3].
On the same counts, the results for `COc1ccc(-c2c(-c3cc(OC)c(OC)c(OC)c3)nc3sc(C4CC4)nn23)cc1` are 16.9 µM, 14.6 µM, 11.6 µM and 10.5 µM.
